# Data reported in patent US20240116985A1, “STAPLED PEPTIDES AND METHODS THEREOF” (priority 2020, published 2024).
# Read-outs that look alike come from different tables or passages of the source.
# Assays:
# [1] = molecular target: T1, beta-catenin/TCF4 engagement (Homo sapiens, UniProt P35222); assay: Nano-BRET target engagement assay (B-cat-Halo & TCF4-Luc in HEK293 cells); assay type: cell-based; conditions: absolute IC50; read-out: NanoBRET Abs IC50
# T1 construct: expressed in transfected cells; host or cells: HEK293
# T1 sequence (P35222 1-781): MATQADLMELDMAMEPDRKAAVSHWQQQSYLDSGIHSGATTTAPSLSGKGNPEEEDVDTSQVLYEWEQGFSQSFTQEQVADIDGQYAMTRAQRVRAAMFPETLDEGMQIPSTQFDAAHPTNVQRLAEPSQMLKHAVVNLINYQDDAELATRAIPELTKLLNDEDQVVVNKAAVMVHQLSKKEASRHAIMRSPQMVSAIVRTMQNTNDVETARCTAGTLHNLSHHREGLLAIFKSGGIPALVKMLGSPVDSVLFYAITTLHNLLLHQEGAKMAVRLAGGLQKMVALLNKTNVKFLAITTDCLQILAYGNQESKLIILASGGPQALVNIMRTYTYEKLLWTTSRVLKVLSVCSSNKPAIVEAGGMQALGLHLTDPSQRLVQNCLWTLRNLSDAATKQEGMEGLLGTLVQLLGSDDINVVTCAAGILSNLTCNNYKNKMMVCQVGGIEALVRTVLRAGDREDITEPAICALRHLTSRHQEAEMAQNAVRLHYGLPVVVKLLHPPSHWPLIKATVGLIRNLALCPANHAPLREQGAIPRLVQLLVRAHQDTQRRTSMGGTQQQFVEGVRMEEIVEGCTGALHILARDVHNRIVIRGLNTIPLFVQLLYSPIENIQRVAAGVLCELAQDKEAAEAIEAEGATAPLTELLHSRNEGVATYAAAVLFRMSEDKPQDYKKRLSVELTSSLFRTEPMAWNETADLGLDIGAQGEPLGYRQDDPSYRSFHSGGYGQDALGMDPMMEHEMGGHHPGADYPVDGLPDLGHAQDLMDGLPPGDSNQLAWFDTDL
# [2] = test system: TCF/LEF luciferase Reporter in DLD1 cells; assay: TCF reporter assay (DLD1 TCF/LEF luciferase reporter, Bright-Glo); assay type: cell-based; conditions: absolute IC50
# Text: Those skilled in the art will appreciate that other suitable reagents may be utilized and various parameters may be adjusted.
# DLD1 reporter cell line was generated by using TCF/LEF luciferase Reporter Lentivirus (BPS Bioscience Catalog #79787). Parental DLD1 cells (ATCC@ CCL-221) were transfected with the lentivirus and followed by 3-day puromycin selection. Single clone was selected for Reporter assay.
# On Day 1, cultured cells in flasks that are no more than about 60-70% confluent were washed with PBS and typsinized in 3 mL/T75 until cells were free floating. Spin down cells for 5 minutes at 1100RPM. While cells spin, determine the number of plates (3 compounds per plate) needed. After spinning, aspirate the supernatant gently and add 10 mL media (RPMI+4% FBS), and re-suspend and mix the cells gently. Count the cells twice in the cell counter Countess and take average of both the counts, and determine how many cells are needed. After plating cells at 5000 cells/well, seal with aerseal film. 90 uL cells/well. Incubate at 37° C. overnight, tap gently to mix and don't stack plates.
# On Day 2, compounds were added. Stock solution was 10 mM. Make the DMSO containing media by adding 36 uL DMSO to 10 mL of media. Make the dilution wells by transferring 100 uL DMSO+Media into rows B-F of a protein LoBind 96-well plate. Row G is empty. Add any extra DMSO+media to row H. Transfer 4 uL of stock solution to Row A. One compound per column. Add 196 uL media to Row A, no DMSO in the media. Concentration of Row A was 200 uM. Mix well and do a 6 pt, 1:2 serial dilution, mix ×10 per transfer and change tips before each transfer. Removed excess volume from final well (row F) and discard. Transfer 10 uL of the compound containing media to cells with a multichannel according to plate maps. Add 60 uL DMSO containing media to the DMSO wells. The edge wells were typically not used in the assay and could be ignored if needed or replaced with PBS, but there typically were liquids in the wells. Cover plates with breathable plate sealer and incubate overnight.
# A 96-well plate may be utilized to prepare dilution series for up to 12 compounds, each with several concentrations (e.g., 200, 100, 50, 25, 12.5, 6.25 and 0 uM; can be utilized as 100× depending on final test concentrations).
# 0 uM is the DMSO control for the whole plate. Edge well filled with 90 uL cells+10 uL DMSO containing media.
# On Day 3, luciferase levels were assessed using Bright-Glo (Promega). Equilibrate Bright-Glo to room temperature before addition. 7 mL of mixed Bright-Gbo per plate. Unused Bright-Glo could be store at −80° C. Reconstituted reagent can be stored for up to 1 month at −80° C., or after one freeze-thaw. When ready to read, remove plates from incubator and let sit at room temperature for 15 minutes. Typically stagger taking out plates if reading multiple plates before adding the Bright-Glo. Add 90 uL/well Bright-Glo and shake gently for 3 minutes. Read luminescence on GloMax immediately using ‘BrightGlo’ programs.
# Cellular activity was assessed using CTG. Equilibrate CTG reagents to room temperature. Equilibrate plates to room temp, e.g. 15 min. Use same time length for all plates. Add CTG reagent, 25 uL if using undiluted, or 90 uL if diluted 1 to 4. Shake for 2 min to induce cell lysis. Allow plate to incubate at RT for 10 min to stabilize lumine sent signal. Read luminesence using program ‘CellTiter-Glo’. Use Prism to find the Absolute IC50 (AbsIC50=X[50]) of each compound.
# [3] = molecular target: T2, full-length beta-Catenin (Uniprot ID P35222) (Homo sapiens, UniProt P35222); assay: Fluorescence polarization IC50 (beta-catenin / 5FAM-TCF4 10-53 competition); assay type: binding; conditions: fluorescence polarization; read-out: beta-Catenin FP IC50
# T2 construct: 10 nM full-length beta-Catenin (Uniprot ID P35222)
# T2 sequence (P35222 1-781): T1 sequence (P35222 1-781)
# [4] = read-out: DLD1 4% Abs IC50, DLD1 reporter, 4%
# [5] = read-out: DLD1 4% Abs IC50, DLD1 reporter assay, 4%
IC50 [1],IC50 ([2]; read-out: DLD1 reporter assay Abs IC50),IC50 [3],"IC50 [2, 4]","IC50 [2, 5]",Compound
4.3 µM,,0.012 µM,,2.7 µM,"CC(=O)N1CCC[C@]12CC=CCCCC1(CCCC=CCCCOC(=O)N3CC[C@@](C(=O)N[C@@H](Cc4ccsc4)C(=O)N[C@@H](Cc4csc5ccccc45)C(=O)N[C@@H](CCC(N)=O)C(N)=O)(C3)NC(=O)[C@H](CC(C)C)NC(=O)[C@H](Cc3ccccc3)NC(=O)[C@H](C)NC(=O)[C@H](C)NC(=O)[C@H](CN(CCCC(F)(F)F)CC(=O)O)NC(=O)[C@H](CC(=O)O)NC1=O)NC(=O)[C@H](CC(C)(C)C)NC(=O)[C@H](CC(=O)O)NC2=O (stereo partly drawn) [I-1629, Ac-PL3-Asp-Npg-B5-Asp-[Tfb]GA-Ala-Ala-Phe-Leu-PyrS2-3Thi-BztA-Gln-NH2]"
6.5 µM,,0.01 µM,,2.6 µM,"CC(=O)N1CCC[C@]12CC=CCCCC1(CCCC=CCCCOC(=O)N3CC[C@@](C(=O)N[C@@H](Cc4ccsc4)C(=O)N[C@@H](Cc4csc5ccccc45)C(=O)N[C@@H](CCC(N)=O)C(N)=O)(C3)NC(=O)[C@H](CC(C)C)NC(=O)[C@H](Cc3ccccc3)NC(=O)[C@H](C)NC(=O)[C@H](C)NC(=O)[C@H](CN(CC(=O)O)Cc3c(F)c(F)c(F)c(F)c3F)NC(=O)[C@H](CC(=O)O)NC1=O)NC(=O)[C@H](CC(C)(C)C)NC(=O)[C@H](CC(=O)O)NC2=O (stereo partly drawn) [I-1632, Ac-PL3-Asp-Npg-B5-Asp-[Pfbn]GA-Ala-Ala-Phe-Leu-PyrS2-3Thi-BztA-Gln-NH2]"
4.5 µM,,0.013 µM,,3.4 µM,"CC(=O)N1CCC[C@]12CC=CCCCC1(CCCC=CCCCOC(=O)N3CC[C@@](C(=O)N[C@@H](Cc4ccccc4Cl)C(=O)N[C@@H](Cc4csc5ccccc45)C(=O)N[C@@H](CCC(N)=O)C(N)=O)(C3)NC(=O)[C@H](CC(C)C)NC(=O)[C@H](Cc3ccccc3)NC(=O)[C@H](C)NC(=O)CNC(=O)[C@H](Cc3cccc(C(=O)O)c3)NC(=O)[C@H](CC(=O)O)NC1=O)NC(=O)[C@H](CC(C)(C)C)NC(=O)[C@H](CC(=O)O)NC2=O (stereo partly drawn) [I-1684, Ac-PL3-Asp-Npg-B5-Asp-3COOHF-Gly-Ala-Phe-Leu-PyrS2-2C1F-BztA-Gln-NH2]"

# Second part, the molecule before the results:
Compound,IC50 [1],IC50 ([2]; read-out: DLD1 reporter assay Abs IC50),IC50 [3],"IC50 [2, 4]","IC50 [2, 5]"
"CC(=O)N1CCC[C@]12CC=CCCCC1(CCCC=CCCCOC(=O)N3CC[C@@](C(=O)N[C@@H](Cc4ccccc4Cl)C(=O)N[C@@H](Cc4csc5ccccc45)C(=O)N[C@H](CO)CC(C)C)(C3)NC(=O)[C@H]([C@@H](C)O)NC(=O)[C@H](Cc3ccccc3)NC(=O)[C@H](C)NC(=O)[C@H](C)NC(=O)[C@H](CC(=O)O)NC(=O)[C@H](CC(=O)O)NC1=O)NC(=O)[C@H](CC(C)(C)C)NC(=O)[C@H](CC(=O)O)NC2=O (stereo partly drawn) [I-1247, Ac-PL3-Asp-Npg-B5-Asp-Asp-Ala-Ala-Phe-Thr-PyrS2-2C1F-BztA-Leuo1]",> 20 µM,> 20 µM,0.033 µM,,
"CC(=O)N1CCC[C@]12CC=CCCCC1(CCCC=CCCCOC(=O)N3CC[C@@](C(=O)N[C@@H](Cc4ccsc4)C(=O)N[C@@H](Cc4csc5ccccc45)C(=O)N[C@H](CO)[C@@H](C)O)(C3)NC(=O)[C@H](CC(C)C)NC(=O)[C@H](Cc3ccccc3)NC(=O)[C@H](C)NC(=O)[C@H](C)NC(=O)[C@H](CC(=O)O)NC(=O)[C@H](CC(=O)O)NC1=O)NC(=O)[C@H](CC(C)(C)C)NC(=O)[C@H](CC(=O)O)NC2=O (stereo partly drawn) [I-1302, Ac-PL3-Asp-Npg-B5-Asp-Asp-Ala-Ala-Phe-Leu-PyrS2-3Thi-BztA-Thro1]",21.4 µM,,0.045 µM,4 µM,
"CC(=O)N1CCC[C@]12CC=CCCCC1(CCCC=CCCCOC(=O)N3CC[C@@](C(=O)N[C@@H](Cc4ccccc4C(F)(F)F)C(=O)N[C@@H](Cc4csc5ccccc45)C(=O)N[C@@H](CCC(N)=O)C(N)=O)(C3)NC(=O)[C@H](CC(C)C)NC(=O)[C@H](Cc3ccccc3)NC(=O)[C@H](C)NC(=O)[C@H](C)NC(=O)[C@H](CC(=O)O)NC(=O)[C@H](CC(=O)O)NC1=O)NC(=O)[C@H](CC(C)(C)C)NC(=O)[C@H](CC(=O)O)NC2=O (stereo partly drawn) [I-1318, Ac-PL3-Asp-Npg-B5-Asp-Asp-Ala-Ala-Phe-Leu-PyrS2-2F3MeF-BztA-Gln-NH2]",4.8 µM,,0.014 µM,3.9 µM,
"CC(=O)N1CCC[C@]12CC=CCCCC1(CCCC=CCCCOC(=O)N3CC[C@@](C(=O)N[C@@H](Cc4ccsc4)C(=O)N[C@@H](Cc4csc5ccccc45)C(=O)N[C@@H](CCC(N)=O)C(N)=O)(C3)NC(=O)[C@H](CC(C)C)NC(=O)[C@H](Cc3ccccc3)NC(=O)[C@H](C)NC(=O)[C@H](C)NC(=O)[C@H](CN(CC(=O)O)CC(F)(F)F)NC(=O)[C@H](CC(=O)O)NC1=O)NC(=O)[C@H](CC(C)(C)C)NC(=O)[C@H](CC(=O)O)NC2=O (stereo partly drawn) [I-1461, Ac-PL3-Asp-Npg-B5-Asp-TfeGA-Ala-Ala-Phe-Leu-PyrS2-3Thi-BztA-Gln-NH2]",3.7 µM,,0.01 µM,1.7 µM,
"CC(=O)N1CCC[C@]12CC=CCCCC1(CCCC=CCCCOC(=O)N3CC[C@@](C(=O)N[C@@H](Cc4ccccc4C(F)(F)F)C(=O)N[C@@H](Cc4csc5ccccc45)C(=O)N[C@@H](CC(=O)N4CCN(C)CC4)C(N)=O)(C3)NC(=O)[C@H](CC(C)C)NC(=O)[C@H](Cc3ccccc3)NC(=O)[C@H](C)NC(=O)[C@H](C)NC(=O)[C@H](Cc3cccc(C(=O)O)c3)NC(=O)[C@H](CC(=O)O)NC1=O)NC(=O)[C@H](CC(C)(C)C)NC(=O)[C@H](CC(=O)O)NC2=O (stereo partly drawn) [I-1612, Ac-PL3-Asp-Npg-B5-Asp-3COOHF-Ala-Ala-Phe-Leu-PyrS2-2F3MeF-BztA-MePpzAsn-NH2]",5.3 µM,,0.01 µM,,4 µM
"CC(=O)N1CCC[C@]12CC=CCCCC1(CCCC=CCCCOC(=O)N3CC[C@@](C(=O)N[C@@H](Cc4ccccc4C(F)(F)F)C(=O)N[C@@H](Cc4csc5ccccc45)C(=O)N[C@@H](CCCCNC(C)C)C(N)=O)(C3)NC(=O)[C@H](CC(C)C)NC(=O)[C@H](Cc3ccccc3)NC(=O)[C@H](C)NC(=O)[C@H](C)NC(=O)[C@H](Cc3cccc(C(=O)O)c3)NC(=O)[C@H](CC(=O)O)NC1=O)NC(=O)[C@H](CC(C)(C)C)NC(=O)[C@H](CC(=O)O)NC2=O (stereo partly drawn) [I-1616, Ac-PL3-Asp-Npg-B5-Asp-3COOHF-Ala-Ala-Phe-Leu-PyrS2-2F3MeF-BztA-iPrLys-NH2]",4.5 µM,,0.013 µM,,2.8 µM
